Test results: PMC11359332, “Characterization of Neonicotinoid Metabolites by Cytochrome P450-Mediated Metabolism in Poultry” (Toxics, 2024)

Legend:
[1] = test system: quail liver microsomes (CYP); test: In vitro CYP metabolism of neonicotinoids, quail liver microsomes, metabolites quantified by LC/MS/MS; format: in vitro ADME, quail (Coturnix coturnix)
Method: (§1) All experimental protocols and animal-handling procedures were performed following the guidelines for animal experiments and approved by the Animal Ethics Research Committee of the Faculty of Veterinary Medicine, […] University, Bangkok, Thailand (Approval number: […]-026). Liver samples of chickens (Gallus domesticus, n = 5), ducks (Anas platyrhynchos, n = 5), […] domesticus, n = 3), quails (Coturnix coturnix, n = 5), and rats (Rattus norvegicus, n = 3) were obtained from the previous study. The liver microsomal fractions used in this study were prepared by the method of Omura and Sato [28] with slight modifications. Briefly, liver sample was homogenized with 0.1 M potassium phosphate buffer (KPB, pH 7.4) and centrifuged at 9000× g at 4 °C for 20 min. The supernatant was collected and centrifuged twice at 105,000× g at 4 °C for 60 min. Microsomal pellets were homogenized with 0.1 M KPB and measured for protein concentrations using the BCA protein assay kit (Thermo Fisher Scientific, Rockford, IL, USA) before being frozen using liquid nitrogen, for storage at -80 °C until analysis. […] The accuracy of the current analytical method was validated and determined using matrix-spiked neonicotinoid standards at two concentrations, 1 ng/mL and 10 ng/mL. The thirteen target compounds were detected with recovery rates ranging from 87 to 101% at 1 ng/mL, and 86 to 116% at 10 ng/mL. […]

[2] = test system: goose liver microsomes (CYP); test: In vitro CYP metabolism of neonicotinoids, goose liver microsomes, metabolites quantified by LC/MS/MS; format: in vitro ADME, goose (Anser domesticus)
Method: as §1

[3] = test system: rat liver microsomes (CYP); test: In vitro CYP metabolism of neonicotinoids, rat liver microsomes, metabolites quantified by LC/MS/MS; format: in vitro ADME
Method: (§2) All experimental protocols and animal-handling procedures were performed following the guidelines for animal experiments and approved by the Animal Ethics Research Committee of the Faculty of Veterinary Medicine, […] University, Bangkok, Thailand (Approval number: […]-026). Liver samples of chickens (Gallus domesticus, n = 5), ducks (Anas platyrhynchos, n = 5), […] domesticus, n = 3), quails (Coturnix coturnix, n = 5), and rats (Rattus norvegicus, n = 3) were obtained from the previous study. The liver microsomal fractions used in this study were prepared by the method of Omura and Sato [28] with slight modifications. Briefly, liver sample was homogenized with 0.1 M potassium phosphate buffer (KPB, pH 7.4) and centrifuged at 9000× g at 4 °C for 20 min. The supernatant was collected and centrifuged twice at 105,000× g at 4 °C for 60 min. Microsomal pellets were homogenized with 0.1 M KPB and measured for protein concentrations using the BCA protein assay kit (Thermo Fisher Scientific, Rockford, IL, USA) before being frozen using liquid nitrogen, for storage at -80 °C until analysis. The assay of neonicotinoid metabolism using liver microsome was modified from that of a previous study. Since we had insufficient liver samples to produce the microsomes of geese and quails, the substrates of imidacloprid and clothianidin were not applied for those microsome reactions. However, microsomes of chicken, ducks, and rats were used for all substrate reactions. […] Then, the reaction was initiated by adding a mixture of G6PDH (2 IU/mL) and β-NADPH (0.5 mM), and continuously incubating for 30 min. Then, 0.1% formic acid in acetonitrile was added to stop the reaction. After that, the reaction sample was placed on ice for 15 min before centrifugation at 12,000 g for 10 min. The supernatant (100 μL) was collected and then spiked with neonicotinoid internal standard mixtures (50 μL), then evaporated using a centrifugal evaporator (CVE-200D with UT-2000, EYELA, Tokyo, Japan). The dried sample was re-dissolved with 20% methanol (v/v) and transferred into vials for chemical analysis. […] For all analyses, mobile phase A consisted of 0.1% formic acid + 10 mM ammonium acetate in distilled water and mobile phase B consisted of 0.1% formic acid + 10 mM ammonium acetate in 100% MeOH. The injection volume of 5 μL, the flow rate of 0.40 mL/min with gradient elution, and a column temperature of 45 °C were used for all experiments. The ion signals were acquired with multiple-reaction monitoring (MRM) in positive ionization mode. In the current study, the liver microsome was spiked with deuterium-labelled internal standards (ISs) of the target neonicotinoids before the extraction and purification processes. […] The calibration curves were created using 10-point calibration standards ranging from 0.05 to 20 ng/mL. […] The accuracy of the current analytical method was validated and determined using matrix-spiked neonicotinoid standards at two concentrations, 1 ng/mL and 10 ng/mL. The thirteen target compounds were detected with recovery rates ranging from 87 to 101% at 1 ng/mL, and 86 to 116% at 10 ng/mL. […] In the current study, all the assays were performed in duplicates and the negative controls (the reaction mixture without substrate) were prepared for each sample. […] Statistical analyses were conducted using the JMP […] software (SAS Institute, Carry, NC, USA). One-way ANOVA with post-hoc Tukey-Kramer multiple comparison test was used to compare the Vmax/Km ratio among species. All results were presented as the mean ± standard deviation (SD).

[4] = test system: chicken liver microsomes (CYP); test: In vitro CYP metabolism of neonicotinoids, chicken liver microsomes, metabolites quantified by LC/MS/MS; format: in vitro ADME, chicken (Gallus domesticus)
Method: as §2

[5] = test system: liver microsomes from various species; test: Metabolite screening by LC/Q-TOF in reaction mixtures using liver microsomes from various species; format: in vitro ADME, chicken, duck, goose, quail, rat
Method: The assay of neonicotinoid metabolism using liver microsome was modified from that of a previous study. Since we had insufficient liver samples to produce the microsomes of geese and quails, the substrates of imidacloprid and clothianidin were not applied for those microsome reactions. However, microsomes of chicken, ducks, and rats were used for all substrate reactions. […] Then, the reaction was initiated by adding a mixture of G6PDH (2 IU/mL) and β-NADPH (0.5 mM), and continuously incubating for 30 min. Then, 0.1% formic acid in acetonitrile was added to stop the reaction. After that, the reaction sample was placed on ice for 15 min before centrifugation at 12,000 g for 10 min. The supernatant (100 μL) was collected and then spiked with neonicotinoid internal standard mixtures (50 μL), then evaporated using a centrifugal evaporator (CVE-200D with UT-2000, EYELA, Tokyo, Japan). The dried sample was re-dissolved with 20% methanol (v/v) and transferred into vials for chemical analysis.
A liquid chromatograph quadrupole time-of-flight (6546 LC/Q-TOF; Agilent Technologies, Santa Clara, CA, USA) operated with a 1.8 μm Eclipse Plus C18 RRHD analytical column (2.1 × 150 mm; Agilent Technologies, CA, USA) at a flow rate of 0.25 mL/min was used in the screening test to search for chromatographic peaks with the exact molecular mass of the possible neonicotinoid metabolites (Table S3). The mobile phases were 10 mM ammonium formate in water (A) and 10 mM ammonium formate in MeOH (B). The gradient elution of mobile phase B was set as follows: 2% (0–1 min), 100% (1–30 min), continued 100% (30–39 min), and a 4 min post-run at 2%. An injection volume was 5 μL and the column temperature was maintained at 45 °C. The expected formulas of potential metabolites of the four neonicotinoids were derived from previous publications on neonicotinoid metabolites in environment samples [29, 30] and in animals.
Several neonicotinoid metabolites were formed in our current in vitro biotransformation assays (Table 1).

[6] = test system: duck liver microsomes (CYP); test: In vitro CYP metabolism of neonicotinoids, duck liver microsomes, metabolites quantified by LC/MS/MS; format: in vitro ADME, duck (Anas platyrhynchos)
Method: as §2

[7] = test system: nicotinic acetylcholine receptors; details: cited from earlier work
[8] = test system: fish leukocytes; set-up: method as in PMID 38594566; details: compared with parent substances; cited from earlier work
[9] = clothianidin to clothianidin-urea
[10] = clothianidin to dn-clothianidin
[11] = clothianidin to dm-clothianidin
[12] = imidacloprid to 4OH-imidacloprid
[13] = imidacloprid to 5OH-imidacloprid
[14] = imidacloprid to dn-imidacloprid
[15] = imidacloprid to imidacloprid-olefin

**Q.** What does the source list for `C/C(=N\C#N)N(C)Cc1ccc(Cl)nc1` [Acetamiprid]?
**A.** Vmax ([1]; acetamiprid to dm-acetamiprid): 0.3 ± 0.1 pmol/min/mg protein; Vmax ([2]; acetamiprid to dm-acetamiprid): 1.3 ± 0.2 pmol/min/mg protein; Vmax ([3]; acetamiprid to dm-acetamiprid): 0.1 ± 0.0 pmol/min/mg protein; Vmax ([4]; acetamiprid to dm-acetamiprid): 1.2 ± 0.0 pmol/min/mg protein; Species in which metabolite N-[(6-chloro-3-pyridyl) methyl]-N-methyl acetamidine was identified ([5]; substrate acetamiprid 800 µM): Duck, Goose, Quail, Rat; Species in which metabolite N-desmethyl-acetamiprid was identified ([5]; substrate acetamiprid 800 µM): Chicken, Duck, Goose, Quail, Rat; Species in which metabolite N-methyl(6-chloro-3-pyridyl) methylamine was identified ([5]; substrate acetamiprid 800 µM): Chicken, Duck, Goose, Quail, Rat; Vmax ([6]; acetamiprid to dm-acetamiprid): 0.4 ± 0.0 pmol/min/mg protein

**Q.** Which Vmax [3, 9] does the source give for `CN/C(=N\[N+](=O)[O-])NCc1cnc(Cl)s1` [Clothianidin] here?
**A.** 0.012 ± 0.002 pmol/min/mg protein

**Q.** What about the Vmax [3, 10] of the same compound?
**A.** 0.2 ± 0.0 pmol/min/mg protein

**Q.** And the Vmax [4, 9]?
**A.** 0.008 ± 0.001 pmol/min/mg protein

**Q.** What about the Vmax [4, 11] of the same compound?
**A.** 4.4 ± 1.2 pmol/min/mg protein

**Q.** And the Vmax [4, 10]?
**A.** 0.1 ± 0.0 pmol/min/mg protein

**Q.** What about the “Species in which metabolite clothianidin-urea was identified” value ([5]; substrate clothianidin 800 µM, goose and quail not analyzed) of the same compound?
**A.** Chicken, Duck, Rat

**Q.** What about the “Affinity to nicotinic acetylcholine receptors” value [7] of the same compound?
**A.** high affinity to nicotinic acetylcholine receptors

**Q.** And the Vmax [6, 9]?
**A.** 0.005 ± 0.001 pmol/min/mg protein

**Q.** And the Vmax [6, 11]?
**A.** 2.9 ± 1.3 pmol/min/mg protein

**Q.** And the Vmax [6, 10]?
**A.** 0.3 ± 0.1 pmol/min/mg protein

**Q.** With `O=[N+]([O-])NC1=NCCN1Cc1ccc(Cl)nc1` [Imidacloprid] as the compound, how does the Vmax [3, 12] read?
**A.** 0.1 ± 0.0 pmol/min/mg protein

**Q.** What about the Vmax [3, 13] of the same compound?
**A.** 0.1 ± 0.0 pmol/min/mg protein

**Q.** And the Vmax [3, 14]?
**A.** 0.1 ± 0.0 pmol/min/mg protein

**Q.** And the Vmax [4, 12]?
**A.** 0.5 ± 0.0 pmol/min/mg protein

**Q.** And the Vmax [4, 13]?
**A.** 0.5 ± 0.0 pmol/min/mg protein

**Q.** And the Vmax [4, 14]?
**A.** 1.0 ± 0.7 pmol/min/mg protein

**Q.** And the Vmax [4, 15]?
**A.** 0.2 ± 0.0 pmol/min/mg protein

**Q.** And the Vmax [6, 12]?
**A.** 0.1 ± 0.0 pmol/min/mg protein

**Q.** What about the Vmax [6, 13] of the same compound?
**A.** 0.1 ± 0.0 pmol/min/mg protein

**Q.** What about the Vmax [6, 14] of the same compound?
**A.** 0.2 ± 0.0 pmol/min/mg protein

**Q.** And the Vmax [6, 15]?
**A.** 0.03 ± 0.0 pmol/min/mg protein

**Q.** With `CN1COCN(Cc2cnc(Cl)s2)/C1=N\[N+](=O)[O-]` [Thiamethoxam] as the compound, how does the Vmax ([1]; thiamethoxam to clothianidin) read?
**A.** 0.4 ± 0.1 pmol/min/mg protein

**Q.** And the Vmax ([2]; thiamethoxam to clothianidin)?
**A.** 0.2 ± 0.1 pmol/min/mg protein

**Q.** And the Vmax ([3]; thiamethoxam to clothianidin)?
**A.** 0.1 ± 0.0 pmol/min/mg protein

**Q.** And the Vmax ([4]; thiamethoxam to clothianidin)?
**A.** 1.2 ± 0.0 pmol/min/mg protein

**Q.** And the Vmax ([4]; thiamethoxam to dm-clothianidin)?
**A.** 0.01 ± 0.00 pmol/min/mg protein

**Q.** And the “Species in which metabolite N-desmethyl-thiamethoxam was identified” value ([5]; substrate thiamethoxam 800 µM)?
**A.** Chicken, Duck, Goose, Quail, Rat

**Q.** What about the “Species in which metabolite clothianidin was identified” value ([5]; substrate thiamethoxam 800 µM) of the same compound?
**A.** Chicken, Duck, Goose, Quail, Rat

**Q.** And the “Species in which metabolite clothianidin-urea was identified” value ([5]; substrate thiamethoxam 800 µM)?
**A.** Chicken, Duck, Goose, Quail, Rat

**Q.** And the “Species in which metabolite dm-clothianidin was identified” value ([5]; substrate thiamethoxam 800 µM)?
**A.** Chicken

**Q.** What about the “Species in which metabolite thiamethoxam-urea was identified” value ([5]; substrate thiamethoxam 800 µM) of the same compound?
**A.** Chicken, Duck, Goose, Quail, Rat

**Q.** What about the Vmax ([6]; thiamethoxam to clothianidin) of the same compound?
**A.** 0.1 ± 0.0 pmol/min/mg protein

**Q.** Which “Cytotoxicity potency on fish leukocytes” value [8] does the source give for `NC1=NCCN1Cc1ccc(Cl)nc1` [dn-imidacloprid, desnitro-imidacloprid] here?
**A.** higher cytotoxicity potency on fish leukocytes than their parent substances

**Q.** What about the “Affinity for nicotinic acetylcholine receptors” value ([7]; compared with imidacloprid) of the same compound?
**A.** higher affinity for nicotinic acetylcholine receptors than imidacloprid

**Q.** Which “Cytotoxicity potency on fish leukocytes” value [8] does the source give for `NC(=O)N=C1SCCN1Cc1ccc(Cl)nc1` [thiacloprid-amide] here?
**A.** higher cytotoxicity potency on fish leukocytes than their parent substances
